One test deals with S4897 sunflower plants. Kind of test: Greenhouse spray treatment with imazamox (FIG. 3, 4). The conditions noted are these: S4897 versus IMISUN-1 and wild-type; imazamox 100 or 200 g ai/ha; evaluated 17 days after application. In kind it is in vivo, Helianthus annuus. On the procedure:
(§1) The S4897 and IMISUN-1 sunflower plants were spray-treated with imazamox at rate of 200 g ai/ha. […] The photograph was taken a few days after the plants were spray treated.
(§2) FIG. 4 is graphical illustration of herbicide injury in a greenhouse test following the spray treatment of IMISUN-1, wild-type, and S4897 sunflower plants with imazamox at either 100 (light columns) or 200 g ai/ha (dark columns). […] Herbicide injury was evaluated 17 days after the imazamox application.

The test system of test [1] is wild-type sunflower plants. The test is described as above. The format is in vivo, Helianthus annuus. As to conditions: wild-type control plants, imazamox at either 100 or 200 g ai/ha. The procedure: as §1, §2
The next test has as its system AHAS. Kind of test: AHAS activity analysis, inhibition by herbicide (Example 5). In kind it is biochemical, Helianthus annuus. The conditions noted are these: AHAS of S4897 versus a Clearfield sunflower and a conventional non Clearfield variety; higher concentration of imazamox (FIG. 7). The procedure: AHAS activity analysis was also conducted by selecting actively growing young leaves from plants that were not sprayed with herbicide at approximately four weeks after planting.

Test [2] deals with Conventional non-Clearfield sunflower variety. Kind of test: Greenhouse spray test, injury rating (Example 5). In kind it is in vivo, Helianthus annuus. As to conditions: 14 DAT, scale 0=no injury to 9=dead plant. The text has this: (§3) Sunflower lines S4897, Clearfield® sunflower varieties A, B, C and a conventional non-Clearfield variety were sprayed with three rates of imazamox (Raptor™), 100, 200 and 300 gm ai/ha plus 0.5% Sun It II and two rates of imazapyr (Arsenal™) 160 and 360 gm ai/ha plus 0.5% Sun It II when the plants were at the two to three leaf stage. Ratings were taken at 14 days after application (DAT) for injury. Injury was rated on a scale from 0 to 9 where 0=no injury to 9=dead plant. Twelve plants were sprayed per herbicide/rate treatment. Statistical analysis was conducted with STATGRAPHICS Plus 5.0 by using ANOVA and LSD procedures.
(§4) After plants were sprayed, it was realized that a height difference between S4897 and other sunflower varieties would have impacted the actual herbicide dose that was delivered. The spray boom height had been calibrated against S4897 and since the other varieties were taller and closer to the boom they would have received a greater dose of herbicide. Rates were recalibrated for the other varieties to determine the approximate dose they would have received. Assessments were made as presented in Table 2 since it was not possible to make a direct rate comparison due to the effect of the height. For example injury scores were compare for S4897 treated imazamox rate 100 gm ai/ha to the other varieties treated at 75 gm ai/ha. The treatment dose of 300 gm ai/ha for line S4897 was equivalent to the treatment of 200 gm ai/ha for the other varieties, which […].

Test [3] has as its system Clearfield-Sunflower variety C. Kind of test: Greenhouse spray test, injury rating (Example 5). As to conditions: 14 DAT, scale 0=no injury to 9=dead plant. In kind it is in vivo, Helianthus annuus.
Text: as §3, §4

For test [4], the system named is Clearfield-Sunflower variety A. As to the kind of experiment: Greenhouse spray test, injury rating (Example 5). The format is in vivo, Helianthus annuus. As to conditions: 14 DAT, scale 0=no injury to 9=dead plant.
Text: as §3, §4

Test [5] deals with Clearfield-Sunflower variety B. As to the kind of experiment: Greenhouse spray test, injury rating (Example 5). In kind it is in vivo, Helianthus annuus. The conditions noted are these: 14 DAT, scale 0=no injury to 9=dead plant.
Text: as §3, §4

Another test relates to Sunflower line S4897. Kind of test: Greenhouse spray test, injury rating (Example 5). The format is in vivo, Helianthus annuus. As to conditions: 14 DAT, scale 0=no injury to 9=dead plant.
Text: as §3, §4

The test system of a further test is S4897 plants. As to the kind of experiment: Field trials in Argentina, resistance to imazapic (Example 4). In kind it is in vivo, Helianthus annuus. The conditions noted are these: S4897 versus IMISUN-1 (Ala190-to-Val), single row plots, no data presented. On the procedure:
In field trials in Argentina, S4897 plants were tested for resistance to imazapic. […] This trial had single row plots and was treated on a windy day, so the actual herbicide dose reaching the plants was likely less than was applied.

Where [6] appears, read: Imazamox 300 gm ai/ha (dose received).

Each structure is given as a SMILES string.

`COCc1cnc(C2=NC(C)(C(C)C)C(=O)N2)c(C(=O)O)c1` (stereo not shown) [imazamox]: the “herbicide injury (resistance or tolerance)” value in the test on S4897 sunflower plants is “significantly greater resistance or tolerance”. Further, the “survival following spray treatment” value in test [1] is recorded as “did not survive”. In addition, the “inhibition of AHAS activity” value with AHAS was “less inhibition at the higher concentration of imazamox as compared to a Clearfield® sunflower and conventional non Clearfield variety”. In addition, the Injury in test [2] (Imazamox 75 gm ai/ha) came out at 7.2 days; in [2] (Imazamox 150 gm ai/ha), 8.2 days; in [2] (setting [6]), 8.7 e; in [3] (Imazamox 75 gm ai/ha), 1.8 b; in test [3] (Imazamox 150 gm ai/ha), 2.9 b; in test [3] (setting [6]), 4.6 b. The Injury was 4.3 c in [4] (Imazamox 75 gm ai/ha); “significantly injured and had stopped growing” in test [4] (Imazamox 150 gm ai/ha); 4.6 c in test [4] (Imazamox 150 gm ai/ha, listed as Imazamox); 6.5 days in test [4] (setting [6]); 1.9 b in test [5] (Imazamox 75 gm ai/ha); 4.8 c in [5] (Imazamox 150 gm ai/ha). Further, the Injury in test [5] (setting [6]) is given as 5.3 c; in the test with Sunflower line S4897 (Imazamox 100 gm ai/ha), 0.5 a; with Sunflower line S4897 (Imazamox 200 gm ai/ha), “little to no injury”; in the test with Sunflower line S4897 (Imazamox 200 gm ai/ha, listed as Imazamox) it was 0.8 a; in the test on Sunflower line S4897 (Imazamox 300 gm ai/ha) it was “very little injury”; in the test with Sunflower line S4897 (Imazamox 300 gm ai/ha, listed as Imazamox) it was 0.8 a.
With `Cc1cnc(C2=NC(=O)C(C)(C(C)C)N2)c(C(=O)O)c1` (stereo not shown) [imazapic], the “resistance (tolerance) to imazapic” value in the test with S4897 plants was “clearly superior to the IMISUN-1”.

The values are drawn from patent US20150176022A1, “HERBICIDE-RESISTANT SUNFLOWER PLANTS, POLYNUCLEOTIDES ENCODING HERBICIDE=RESISTANT ACETO HYDROXY ACID SYNTHASE LARGE SUBUNIT PROTEINS, AND METHODS OF USE” (priority 2013, published 2015).
